Data from patent US20250108023A1, “Products for Masking Bitterness” (The Third People's Hospital of Henan Province, priority 2023, published 2025).
Read-outs that look alike come from different tables or passages of the source.

Key:
[1] = Oral spray bitterness masking taste test by volunteers with Coptis chinensis standard bitter solution; assay type: in vivo, healthy volunteers; design: key to bitterness value after drug: bitterness value 0.5–5.5; 1 = none, 5 = unbearable; key to Reduction of bitterness: drop in bitterness value (0.5–5.5 scale) from initial; settings: for inhibition in vivo at 0.2 %: Homo sapiens, read-out: Reduction range; for Duration >: retention time until bitterness rises; for bitterness value after drug: initial bitterness 4.0, 16 cases; for Reduction of bitterness: original bitterness average 4.0, average of 31 cases
Procedure: Purpose of the experiment: it is to screen out compounds that take effect within 5 seconds, last for 30-120 seconds, and it is expected, by using such kind of compounds, the taste of the drug cannot be felt during the duration (30-120 seconds) when taking the drug.
Principle of the experiment: simulate the process of taking medicine and using the taste masking agents, first spray about 0.5 ml of oral spray on the throat (3 times), and after it takes effect quickly, taste 10 ml of bitter standard solution to screen drugs that can be used in advance and can mask the bitter taste.
• 1: Volunteer screening. The research team strictly screened the recruited volunteers and finally selected healthy volunteers as subjects. They signed informed consent forms before the experiment; • 2: Standard bitterness sample preparation. The bitterness of the samples was divided into five levels, and each level was assigned a certain bitterness value range; • 3: The sensory standard was corrected by the oral taste evaluation method, that is, the sensory standard was corrected by comparing the taste evaluation of the volunteers with the established bitterness value of the reference sample group. Specific steps: when the volunteers are doing the oral tasting test, the reference solutions of various concentrations are placed in the tasting cups, and the volunteers hold one of the solutions in their mouths, time it, and rinse their mouths by using the solution so that the bitter taste perception area at the root and sides of the tongue can fully feel the bitter taste of the drug. […] Then dilute all the selected taste masking drugs, prepare the solution, take 10 ml and put it into the spray bottle, spray it into the mouth 3 times, stay for 5 seconds, drink 10 ml of standard bitterness solution, feel and record the bitterness value, keep the standard bitterness solution in the mouth until the bitterness rises, and record the retention time. • 5: Quality control. […] Since the experimental objects are biological samples and there are individual differences between different subjects, there may be individual outliers in the experimental test data. The Grubbs test method was used to exclude outliers in the data, and then the experimental data were plotted in tables and curves for data analysis.
It is necessary to process the experimental data. Specifically, the Grubbs test method was used to perform a circular test and elimination of outliers on the data, and a bilateral test was used to eliminate outliers in the oral test. Considering the characteristics of biological samples, the detection level was selected as 0.1 and the elimination level was selected as 0.05 in this experiment.
The experimental medicinal material processing method mentioned in the above technical scheme is as follows: Preparation of bitter standard solution, use 10 g of Coptis chinensis powder, add 100 ml of pure water above 90 degrees, stir, let stand for 20 minutes, take the supernatant for use, determine the standard bitterness of 4.0 degrees by oral tasting, dilute 5 times, determine the standard bitterness of 2.0 degrees, dilute 2.0 degrees again 5 times, determine the standard bitterness of 0.5 degrees. Compare with the bitterness scoring table, (level 1 means “no bitterness or almost no bitterness”, the bitterness value is 0.5˜1.5; level 2 means “slightly bitter”, the bitterness value is 1.5˜2.5; level 3 means “bitter but acceptable”, the bitterness value is 2.5˜3.5; level 4 means “very bitter, but still tolerable”, the bitterness value is 3.5˜4.5; level 5 means “unbearable bitterness”, the bitterness value is 4.5˜5.5). Adjust the judgment and cognition of bitterness.
The standard bitterness solution used in this experiment to verify the experimental effect is a 4.0 degree bitterness solution of Coptis chinensis prepared according to the above method.

[2] = Broad-spectrum taste masking test on decoctions of extremely bitter Chinese herbal medicine slices; assay type: in vivo, healthy volunteers; design: key: reduction in bitterness degrees on a 5-degree graduation scale; settings: 0.1% taste masking agent in 40% ethanol
Procedure: According to the standard of decocting 100 ml of liquid from 10 g of dry Chinese herbal medicine slices (decoction method: use a stainless steel container, and keep for 20 minutes after boiling), from 300 commonly used Chinese herbal medicine slices, combined with the Chinese Pharmacopoeia, more than 20 Chinese herbal medicines with bitter or extremely bitter properties written in the pharmacopoeia were selected, including Bletilla striata, Cortex qin, Stephania tetrandra, Apricot kernel, Belamcanda chinensis, Angelica dahurica, Lotus seed heart, Toosendan fruit, Andrographis paniculata, Sophora flavescens, Coptis chinensis, Gentiana scabra, Forsythia suspensa, Sophora japonica, Phellodendron amurense, Scutellaria baicalensis, Platycodon grandiflorum, Notopterygium wilfordii, Saposhnikovia divaricata, Perilla frutescens, Zanthoxylum bungeana, Osmanthus fragrans, Sophora flavescens, and Chrysanthemum officinale, totally 24 kinds of Chinese herbal medicines.
Finally, through the 5-degree graduation method, 2 species with a bitterness higher than 3.5 (moderate bitterness) and 7 species with a bitterness higher than 5 degrees (highly bitter, extremely bitter, accompanied by nausea) were screened out, a total of 9 species (Angelica pubescens, Lotus Seed Heart, Toosendan, Andrographis paniculata, Sophora flavescens, Coptis chinensis, Gentiana scabra, Forsythia suspensa, Sophora japonica) are selected as bitterness representatives to participate in the bitterness masking experiment. (Note: The bitterness of Coptis chinensis slices can reach 5.2 after 20 minutes of water decoction. The reference standard solution is 90-degree water brewing Coptis chinensis powder, it is automatically cooled to obtain a solution with a bitter taste of 4.0. Because Coptis chinensis has been used as a standard bitter liquid, it is no longer used).
The experimental method is the same as the previous part.

[3] = 0.2% solution in 60% ethanol as oral spray, relative to original bitterness 4.0
[4] = 0.2% solution in 60% ethanol as oral spray
[5] = concentration 0.001% in 60% ethanol
[6] = concentration 0.005% in 60% ethanol
[7] = concentration 0.02% in 60% ethanol
[8] = concentration 0.10% in 60% ethanol
[9] = concentration 0.50% in 60% ethanol

Compound | inhibition in vivo at 0.2 % [1, 3] [%] | Duration > [1, 4] [s] | bitterness value after drug [1, 5] | bitterness value after drug [1, 6] | bitterness value after drug [1, 7] | bitterness value after drug [1, 8] | bitterness value after drug [1, 9] | Reduction of bitterness [1, 4] | Reduction range [1, 3] [%] | also measured
CCOC(=O)C1=C(COCCN)NC(C)=C(C(=O)OC)C1c1ccccc1Cl (stereo not shown) [Amlodipine, reference compound] | 0 |  |  |  |  |  |  |  |  | 
CC1(C)C2CCC1(C)C(O)C2 (stereo not shown) [Borneolum, 2-borneol] | 52.5 | > 10 | 4 | 3.4 | 2.6 | 1.9 | 2.2 |  |  | 
Cc1ccc(C(C)C)cc1O [Carvacrol] |  |  |  |  |  |  |  |  |  | inhibition in vivo at 0.2 % ([1]; po): 0%
CCOC(=O)CNC(=O)[C@@H]1C[C@H](C)CC[C@H]1C(C)C [Cooling agent WS-5, [((IR, 2S, 5R)-2-isopropyl-5-methyl-cyclohexanecarbonyl)-amino]-ethyl acetate] |  | > 100 | 2.6 | 1.8 | 1.7 | 1.7 | 1.8 | 2.3 | 57.50 | 
CNC(=O)C(C)(C(C)C)C(C)C [Cooling agent WS-23, N,2,3-trimethyl-2-isopropylbutyramide] | 50 | > 30 | 2.5 | 2.4 | 2.1 | 2 | 2.1 |  |  | 
CCCCCC1=C(C)CCC1=O [Dihydrojasmone] |  |  |  |  |  |  |  | 0 | 0.00 | 
COC(=O)[C@@H]1CC2=CC(=O)CC[C@]2(C)[C@@]23O[C@@H]2C[C@@]2(C)[C@@H](CC[C@@]24CCC(=O)O4)[C@H]13 [Eplerenone, reference compound] | 0 |  |  |  |  |  |  |  |  | 
COc1cc(C=O)cc(O)c1O [Hydroxyvanillin] |  |  |  |  |  |  |  | 0 | 0.00 | 
O=S(=O)([O-])[O-].[Mg+2] [Magnesium sulfate] |  | > 20 | 3.5 | 3.2 | 2.8 | 2.5 | 2.3 | 1.5 | 37.50 | 
CCNC(=O)[C@@H]1C[C@H](C)CC[C@H]1C(C)C [Menthamide, N-ethyl-L-menthyl carboxamide] |  | > 120 | 2.4 | 1.8 | 1.5 | 1.5 | 1.6 | 2.5 | 62.50 | Bitterness reduction value ([2]; Andrographis paniculata, original bitterness 5): 0.5; Bitterness reduction value ([2]; Forsythia suspensa, original bitterness 3): 1.7; Bitterness reduction value ([2]; Gentiana, original bitterness 5): 1; Bitterness reduction value ([2]; Lotus seed heart, original bitterness 5): 2.8; Bitterness reduction value ([2]; Puhuo, original bitterness 5): 2.1; Bitterness reduction value ([2]; Sophora flavescens, original bitterness 5): 1; Bitterness reduction value ([2]; Toulianzi, original bitterness 5): 1
COC(=O)C1=C(C)NC(C)=C(C(=O)OC)C1c1ccccc1[N+](=O)[O-] [Nifedipine, reference compound] | 0 |  |  |  |  |  |  |  |  | 
O=C(CCc1ccc(O)cc1)c1c(O)cc(O)cc1O [Phloretin] | 0 |  |  |  |  |  |  |  |  | 
O=C(/C=C/C=C/c1ccc2c(c1)OCO2)N1CCCCC1 [Piperine, (E,E)-1-[5-(1,3-benzodioxol-5-yl)-1-oxo-2,4-pentadieny1]-piperidine] | 52.5 | > 30 | 3.9 | 2.5 | 2.3 | 1.9 | 1.9 |  |  | 
CCCN(CCC)S(=O)(=O)c1ccc(C(=O)O)cc1 [Probenecid, reference compound] | 12.5 | > 30 |  |  |  |  |  |  |  | 
O=c1c(O)c(-c2ccc(O)c(O)c2)oc2cc(O)cc(O)c12 [Quinolide] | 0 |  |  |  |  |  |  |  |  | 
CC1CC(O)CC(C)(C)C1 (stereo not shown) [Trimethylcyclohexanol] |  |  |  |  |  |  |  | 0 | 0.00 | 
Dodecalactone |  |  |  |  |  |  |  | 0 | 0.00 | 
trans-caryophyllene |  | > 30 | 3.8 | 2.6 | 1.9 | 1.7 | 1.8 | 2.3 | 57.50 | 
